According to ChEMBL document CHEMBL5505958, “Optimization of sequence and chiral content enhances therapeutic potential of tilapia piscidin peptides” (Eur J Med Chem, 2024):
Active and inactive are the calls of the source.

Key:
[1] = tested on: Escherichia coli; assay: Antibacterial activity against Escherichia coli 10675 assessed as inhibition of bacterial growth incubated for 16 to 20 hrs; type: functional; settings: time 16-20 hrs
[2] = tested on: Klebsiella pneumoniae; assay: Antibacterial activity against Klebsiella pneumoniae 10692 assessed as inhibition of bacterial growth incubated for 16 to 20 hrs; type: functional; settings: time 16-20 hrs
[3] = tested on: Acinetobacter baumannii; assay: Antibacterial activity against Acinetobacter baumannii 10591 assessed as inhibition of bacterial growth incubated for 16 to 20 hrs; type: functional; settings: time 16-20 hrs
[4] = tested on: Pseudomonas aeruginosa; assay: Antibacterial activity against Pseudomonas aeruginosa 19660 assessed as inhibition of bacterial growth incubated for 16 to 20 hrs; type: functional; settings: time 16-20 hrs
[5] = tested on: Enterococcus faecium; assay: Antibacterial activity against Enterococcus faecium 10067 assessed as inhibition of bacterial growth incubated for 16 to 20 hrs; type: functional; settings: time 16-20 hrs
[6] = tested on: Enterococcus faecalis; assay: Antibacterial activity against Enterococcus faecalis 10066 assessed as inhibition of bacterial growth incubated for 16 to 20 hrs; type: functional; settings: time 16-20 hrs
[7] = tested on: Rhizopus arrhizus; assay: Antifungal activity against Rhizopus oryzae 34550 assessed as inhibition of fungal growth incubated for 16 to 20 hrs; type: functional; settings: time 16-20 hrs
[8] = tested on: Escherichia coli; assay: Bactericidal activity against Escherichia coli 10675 assessed as inhibition of bacterial growth incubated for 16 to 20 hrs; type: functional; settings: time 16-20 hrs
[9] = tested on: Klebsiella pneumoniae; assay: Bactericidal activity against Klebsiella pneumoniae 10692 assessed as inhibition of bacterial growth incubated for 16 to 20 hrs; type: functional; settings: time 16-20 hrs
[10] = tested on: Acinetobacter baumannii; assay: Bactericidal activity against Acinetobacter baumannii 10591 assessed as inhibition of bacterial growth incubated for 16 to 20 hrs; type: functional; settings: time 16-20 hrs
[11] = tested on: Vibrio vulnificus; assay: Bactericidal activity against Vibrio vulnificus 204 assessed as inhibition of bacterial growth incubated for 16 to 20 hrs; type: functional; settings: time 16-20 hrs
[12] = tested on: Enterococcus faecium; assay: Bactericidal activity against Enterococcus faecium 10067 assessed as inhibition of bacterial growth incubated for 16 to 20 hrs; type: functional; settings: time 16-20 hrs
[13] = tested on: Enterococcus faecalis; assay: Bactericidal activity against Enterococcus faecalis 10066 assessed as inhibition of bacterial growth incubated for 16 to 20 hrs; type: functional; settings: time 16-20 hrs
[14] = tested on: Acinetobacter baumannii; assay: Antibacterial activity against Acinetobacter baumannii 10591 assessed as inhibition of bacterial growth incubated for 16 to 20 hrs in presence of human serum; type: functional; settings: time 16-20 hrs
[15] = tested on: Pseudomonas aeruginosa; assay: Antibacterial activity against Pseudomonas aeruginosa 19660 assessed as inhibition of bacterial growth incubated for 16 to 20 hrs in presence of human serum; type: functional; settings: time 16-20 hrs
[16] = tested on: Salmonella typhimurium; assay: Antibacterial activity against Salmonella typhimurium DT104 assessed as inhibition of bacterial growth incubated for 16 to 20 hrs in presence of human serum; type: functional, Salmonella enterica subsp. enterica serovar Typhimurium; settings: Salmonella enterica, time 16-20 hrs
[17] = tested on: Salmonella enterica; assay: Antibacterial activity against Salmonella enterica 15455 assessed as inhibition of bacterial growth incubated for 16 to 20 hrs in presence of human serum; type: functional; settings: time 16-20 hrs
[18] = tested on: Staphylococcus aureus; assay: Antibacterial activity against Staphylococcus aureus 10780 assessed as inhibition of bacterial growth incubated for 16 to 20 hrs in presence of human serum; type: functional; settings: time 16-20 hrs
[19] = tested on: Enterococcus faecium; assay: Antibacterial activity against Enterococcus faecium 10067 assessed as inhibition of bacterial growth incubated for 16 to 20 hrs in presence of human serum; type: functional; settings: time 16-20 hrs
[20] = tested on: Rhizopus arrhizus; assay: Antifungal activity against Rhizopus oryzae 34550 assessed as inhibition of fungal growth incubated for 16 to 20 hrs in presence of human serum; type: functional; settings: time 16-20 hrs
[21] = tested on: Salmonella typhimurium; assay: Bactericidal activity against Salmonella typhimurium DT104 assessed as inhibition of bacterial growth incubated for 16 to 20 hrs in presence of human serum; type: functional, Salmonella enterica subsp. enterica serovar Typhimurium; settings: Salmonella enterica, time 16-20 hrs
[22] = tested on: Salmonella enterica; assay: Bactericidal activity against Salmonella enterica 15455 assessed as inhibition of bacterial growth incubated for 16 to 20 hrs in presence of human serum; type: functional; settings: time 16-20 hrs
[23] = tested on: Staphylococcus aureus; assay: Bactericidal activity against Staphylococcus aureus 10780 assessed as inhibition of bacterial growth incubated for 16 to 20 hrs in presence of human serum; type: functional; settings: time 16-20 hrs
[24] = tested on: Klebsiella pneumoniae; assay: Antibacterial activity against Klebsiella pneumoniae BAA 2473 assessed as inhibition of bacterial growth in presence of 0.1 microg/ml of trypsin (reference value: 1.56 to 3.13 microM); type: functional
[25] = tested on: Klebsiella pneumoniae; assay: Antibacterial activity against Klebsiella pneumoniae BAA 2473 assessed as inhibition of bacterial growth in presence of 10 microg/ml of trypsin (reference value: 1.56 to 3.13 microM); type: functional
[26] = tested on: Klebsiella pneumoniae; assay: Antibacterial activity against Klebsiella pneumoniae BAA 2473 assessed as inhibition of bacterial growth in presence of 10 microg/ml of chymotrypsin (reference value: 1.56 to 3.13 microM); type: functional
[27] = tested on: Klebsiella pneumoniae; assay: Antibacterial activity against Klebsiella pneumoniae BAA 2473 assessed as inhibition of bacterial growth in presence of 0.1 microg/ml of pepsin (reference value: 1.56 to 3.13 microM); type: functional
[28] = tested on: Klebsiella pneumoniae; assay: Antibacterial activity against Klebsiella pneumoniae BAA 2473 assessed as inhibition of bacterial growth in presence of 10 microg/ml of pepsin (reference value: 1.56 to 3.13 microM); type: functional
[29] = tested on: Klebsiella pneumoniae; assay: Antibacterial activity against Klebsiella pneumoniae BAA 2473 assessed as inhibition of bacterial growth in presence of 0.1 microg/ml of proteinase K (reference value: 1.56 to 3.13 microM); type: functional
[30] = tested on: Klebsiella pneumoniae; assay: Bactericidal activity against Klebsiella pneumoniae BAA 2473 assessed as inhibition of bacterial growth in presence of 10 microg/ml of trypsin (reference value: 1.56 to 3.13 microM); type: functional
[31] = tested on: Klebsiella pneumoniae; assay: Bactericidal activity against Klebsiella pneumoniae BAA 2473 assessed as inhibition of bacterial growth in presence of 0.1 microg/ml of chymotrypsin (reference value: 1.56 to 3.13 microM); type: functional
[32] = tested on: Klebsiella pneumoniae; assay: Bactericidal activity against Klebsiella pneumoniae BAA 2473 assessed as inhibition of bacterial growth in presence of 0.1 microg/ml of pepsin (reference value: 1.56 to 3.13 microM); type: functional
[33] = tested on: Klebsiella pneumoniae; assay: Bactericidal activity against Klebsiella pneumoniae BAA 2473 assessed as inhibition of bacterial growth in presence of 1 microg/ml of proteinase K (reference value: 1.56 to 3.13 microM); type: functional
[34] = tested on: Klebsiella pneumoniae; assay: Bactericidal activity against Klebsiella pneumoniae BAA 2473 assessed as inhibition of bacterial growth in presence of 10 microg/ml of proteinase K (reference value: 1.56 to 3.13 microM); type: functional
[35] = tested on: Klebsiella pneumoniae; assay: Antibacterial activity against Klebsiella pneumoniae BAA 2473 assessed as bacterial eradication measured at 10 hrs; type: functional, organism-based
[36] = tested on: Lipopolysaccharide (LPS); assay: Displacement of BODIPY-TR-cadaverine from Klebsiella pneumoniae BAA 2473 lipopolysaccharide (LPS) assessed as increase in fluorescence intensity at 3.125 uM by fluorescence spectrophotometric analysis; type: subcellular
[37] = tested on: Cell membrane; assay: Induction of outer cell membrane permeabilization in Klebsiella pneumoniae BAA 2473 assessed as increase in fluorescence intensity by NPN uptake assay; type: cell membranes
[38] = tested on: Klebsiella pneumoniae; assay: Induction of morphological changes in Klebsiella pneumoniae BAA 2473 assessed as membrane deformations with protruding granules at by transmission electron microscopy analysis; type: functional, organism-based
[39] = tested on: Klebsiella pneumoniae; assay: Antibacterial activity against Klebsiella pneumoniae BAA 2473 assessed as inhibition of bacterial growth in presence of doxycycline; type: functional
[40] = tested on: Klebsiella pneumoniae; assay: Antibacterial activity against Klebsiella pneumoniae BAA 2473 assessed as inhibition of bacterial growth in presence of ciprofloxacin; type: functional
[41] = tested on: Klebsiella pneumoniae; assay: Synergistic antibacterial activity against Klebsiella pneumoniae BAA 2473 assessed as fractional inhibitory concentration index in presence of doxycycline by checkerboard assay; type: functional

CC(C)C[C@H](NC(=O)[C@H](CCCCN)NC(=O)[C@@H](CCCCN)NC(=O)[C@H](CC(C)C)NC(=O)[C@@H](N)Cc1ccccc1)C(=O)N[C@H](CC(C)C)C(=O)N[C@@H](CCCCN)C(=O)N[C@@H](C)C(=O)N[C@H](CC(C)C)C(=O)N[C@@H](Cc1ccccc1)C(=O)N[C@@H](CO)C(=O)N[C@H](C)C(=O)N1CCC[C@H]1C(=O)N[C@@H](CCCCN)C(=O)N[C@H](C)C(=O)N[C@@H](CC(C)C)C(=O)N[C@@H](CCCCN)C(=O)N[C@H](CCCNC(=N)N)C(=O)N[C@@H](CC(C)C)C(=O)N[C@@H](CC(C)C)C(=O)N[C@H](CCCNC(=N)N)C(=O)N[C@@H](CCCNC(=N)N)C(=O)N[C@@H](CCCNC(=N)N)C(=O)N[C@H](CCCNC(=N)N)C(=O)N[C@@H](CCCNC(=N)N)C(=O)O
25 µM: MIC [6]
3.13 µM: MIC [2] | MIC [3] | MIC [4] | MIC [5] | MBC [8] | MBC [9] | MBC [10] | MIC [14] | MIC [15] | MIC [16] | MIC [20] | MBC [21]
1.56 µM: MIC [1] | MIC [25] | MBC [30] | MBC [33]
0.375: fractional inhibitory concentration index (FICI) [41]
> 12.5 µM: MBC [13]
12.5 µM: MBC [11] | MBC [12]
100%: Activity [36]
0.78 µM: MIC [7] | MIC [17] | MBC [22] | MIC [24] | MIC [26] | MIC [27] | MIC [28] | MIC [29] | MBC [31] | MBC [32] | MBC [34]
0.097 µM: MIC [40]
active: Activity [35] | Activity [37] | Activity [38]
0.39 µM: MIC [39]
100 µM: MIC [19] | MBC [23]
6.25 µM: MIC [18]
